# In patent US20260174721A1, “AGENT FOR RESTORING METAL HOMEOSTASIS” (Oxford Antibiotic Group GmbH, priority 2022, published 2026):
# Where two headings read alike, the source gives them in different places.
# What was measured:
# [1] = system: transgenic C. elegans strain CL2659; experiment: β-amyloid test system: delay of paralysis in transgenic C. elegans strain CL2659 (Alzheimer testing); format: in vivo, Caenorhabditis elegans; conditions: CL2659 stage L3 larvae, 48 hours, tested at 1 mg/ml, 100 μg/ml, 10 μg/ml, — = no effect even at 1 mg/ml; for minimal effective concentration: Caenorhabditis elegans, read-out: Alzheimer: concentration range in which a delay in paralysis was observed
# Method: For this purpose, stage L3 worm larvae were used at a density of 10-20 worms per well. The expression of β-amyloid in the muscle cells was induced by increasing the temperature, and the associated paralysis was recorded at regular intervals until the end of the test after 48 hours.
# (§1) For this purpose, the above substances were tested at concentrations of 1 mg/ml, 100 μg/ml, and 10 μg/ml in comparison with quercetin as a […] control.
# [2] = system: transgenic C. elegans strain NL5901; experiment: α-synuclein test system: reduction of α-synuclein-GFP expression in transgenic C. elegans strain NL5901 (Parkinson testing); format: in vivo, Caenorhabditis elegans; conditions: NL5901, GFP readout 24 to 48 hours, tested at 1 mg/ml, 100 μg/ml, 10 μg/ml, — = no effect even at 1 mg/ml; for minimal effective concentration: Caenorhabditis elegans, read-out: Parkinson: concentration range in which a reduction in α-synuclein expression was detectable
# Method: (§2) The same substances as above were tested in a 96-well procedure in the initially mentioned screening assay using the nematode Caenorhabditis elegans (Pretsch et al., see above) in a standardized α-synuclein test system using the transgenic C. elegans strain NL5901 for their potential suitability as an agent for treating Parkinson's disease. This worm strain expresses human α-synuclein bound to green fluorescent protein (GFP) in all muscle cells. GFP labeling allows a direct detection of expressed protein levels using a multiplate reader for 24 to 48 hours.
# (§3) For this purpose, the substances were again tested at concentrations of 1 mg/ml, 100 μg/ml, and 10 μg/ml, but this time in comparison to the initially mentioned Parkinson therapeutic agent levodopa as a control.
# Caenorhabditis elegans = experiment: C. elegans nematode assay, overall rating over the Alzheimer and Parkinson tests; format: in vivo; conditions: for minimal effective concentration: Caenorhabditis elegans, read-out: Score
# Method: The substances (1) to (41) and (101) to (108), prepared in the above synthesis examples or purchased, were tested for their potential suitability as an agent for treating Alzheimer's disease in a 96-well procedure in the initially mentioned screening assay using the nematode Caenorhabditis elegans (Pretsch et al., see above) in a standardized β-amyloid test system using the transgenic C. elegans strain CL2659. For this purpose, stage L3 worm larvae were used at a density of 10-20 worms per well. The expression of β-amyloid in the muscle cells was induced by increasing the temperature, and the associated paralysis was recorded at regular intervals until the end of the test after 48 hours.
# as §1, §2, §3
# [3] = rating from the effective concentration in both tests
Structure (SMILES),minimal effective concentration [1] [µg/mL],minimal effective concentration [2] [µg/mL],minimal effective concentration (Caenorhabditis elegans; [3]) [µg/mL],Score (Caenorhabditis elegans; [3]),minimal effective concentration (Caenorhabditis elegans) [µg/mL],also measured
"O=C(O)CC(=O)O [(1), malonic acid]",> 100,> 100,> 100,,,concentration from which the compound was effective (Caenorhabditis elegans; both tests): > 100 µg/mL
"NC(=O)CC(N)=O [(2), malonic acid diamide]",> 10,> 10,10 to 100,,,
"O=C([O-])CC(=O)[O-].[Na+].[Na+] [(3), disodium malonate]",,,,++ (a compound that is already effective at a concentration >10 μg/ml and therefore rated “++”),,Alzheimer: concentration range in which a delay in paralysis was observed [1]: >10 µg/mL; Parkinson: concentration range in which a reduction in α-synuclein expression was detectable [2]: >10 µg/mL
"COC(=O)CC(=O)OC [(4), malonic acid dimethyl ester]",> 10,> 10,10 to 100,,,
"COC(=O)CC(=O)[O-].[K+] [(5), malonic acid methyl ester potassium salt]",,,,,10 to 100,
"COC(=O)CC(N)=O [(6), malonic acid methyl ester amide]",,,,+ (a compound that is only effective above 100 μg/ml and therefore rated “+”),,Alzheimer: concentration range in which a delay in paralysis was observed [1]: >100 µg/mL; Parkinson: concentration range in which a reduction in α-synuclein expression was detectable [2]: >100 µg/mL
"NCCCNC(=O)CC(=O)O [(7), N-(3-aminopropyl)malonic acid amide]",> 100,> 100,> 100,,,
"CCOC(=O)CC(=O)OC12CC3CC(CC(C3)C1)C2 [(9), malonic acid adamantan-1-yl ethyl ester]",> 10,> 10,10 to 100,,,
"O=C(O)CC(=O)OC12CC3CC(CC(C3)C1)C2 [(10), malonic acid adamantan-1-yl ester N-(3-aminopropyl)amide]",> 10,> 10,10 to 100,,,
"CN(CCCN)C(=O)CC(=O)OC12CC3CC(CC(C3)C1)C2 [(11), malonic acid adamantan-1-yl ester N-(3-aminopropyl)-N-methylamide]",> 10,> 10,10 to 100,,,
"O=C(CC(=O)N1CCNCC1)OC12CC3CC(CC(C3)C1)C2 [(12), malonic acid adamantan-1-yl ester piperazine amide]",,,,,10 to 100,
"NCCCC(=O)N1CCN(C(=O)CC(=O)OC23CC4CC(CC(C4)C2)C3)CC1 [(13), malonic acid adamantan-1-yl ester 4-(4-aminobutyryl)piperazine amide]",> 10,> 10,10 to 100,,,
"NC1CCN(C(=O)CC(=O)OC23CC4CC(CC(C4)C2)C3)CC1 [(14), malonic acid adamantan-1-yl ester 4-aminopiperidine amide]",> 10,> 10,10 to 100,,,
"NCCCC(=O)NC1CCN(C(=O)CC(=O)OC23CC4CC(CC(C4)C2)C3)CC1 [(15), malonic acid adamantan-1-yl ester (4-(4-aminobutyryl)amino)piperidine amide]",> 10,> 10,10 to 100,,,
"NCCCNC(=O)CC(=O)N1CCOCC1 [(22), N-(3-aminopropyl)-N′-morpholine malonic acid diamide]",,,,,10 to 100,
"NCCCNC(=O)CC(=O)N1CCCCC1 [(23), N-(3-aminopropyl)-N′-piperidine malonic acid diamide]",,,,,10 to 100,

Structure (SMILES),minimal effective concentration [1] [µg/mL],minimal effective concentration [2] [µg/mL],minimal effective concentration (Caenorhabditis elegans; [3]) [µg/mL],Score (Caenorhabditis elegans; [3]),minimal effective concentration (Caenorhabditis elegans) [µg/mL],also measured
"O=C(CC(=O)N1CCN(Cc2cccc(C(F)(F)F)c2)CC1)OC12CC3CC(CC(C3)C1)C2 [(29), malonic acid adamantan-1-yl ester 4-(3-trifluoromethylbenzyl)piperazine amide]",,,,,10 to 100,
"O=C(CC(=O)N1CCN(Cc2cccc(F)c2)CC1)OC12CC3CC(CC(C3)C1)C2 [(30), malonic acid adamantan-1-yl ester 4-(3-fluorobenzyl)piperazine amide]",,,,,10 to 100,
"COc1ccccc1N1CCN(C(=O)CC(=O)OC23CC4CC(CC(C4)C2)C3)CC1 [(31), malonic acid adamantan-1-yl ester 4-(2-methoxyphenyl)piperazine amide]",,,,,10 to 100,
"CC12CC3CC(C)(C1)CC(NC(=O)CC(=O)N1CCNCC1)(C3)C2 [(35), N-(3,5-dimethyladamantan-1-yl)-N′-piperazine malonic acid diamide]",,,,,10 to 100,
"CC12CC3CC(C)(C1)CC(NC(=O)CC(=O)N1CCN(Cc4cccc(C(F)(F)F)c4)CC1)(C3)C2 [(36), N-(3,5-dimethyladamantan-1-yl)-N′-4-(3-trifluoromethylbenzyl)piperazine malonic acid diamide]",,,,,10 to 100,
"CC12CC3CC(C)(C1)CC(NC(=O)CC(=O)N1CCN(Cc4cccc(F)c4)CC1)(C3)C2 [(37), N-(3,5-dimethyladamantan-1-yl)-N′-4-(3-fluorobenzyl)piperazine malonic acid diamide]",,,,,10 to 100,
"COc1ccc(N2CCN(C(=O)CC(=O)NC34CC5CC(C)(CC(C)(C5)C3)C4)CC2)cc1 [(39), N-(3,5-dimethyladamantan-1-yl)-N′-4-(4-methoxyphenyl)piperazine malonic acid diamide]",,,,,10 to 100,
"COc1ccc(N2CCN(C(=O)CC(=O)NC34CC5CC(C)(CC(C)(C5)C3)C4)CC2)c(OC)c1 [(40), N-(3,5-dimethyladamantan-1-yl)-N′-4-(2,4-dimethoxyphenyl)piperazine malonic acid diamide]",,,,,10 to 100,
"CC(C)(C(=O)O)C(=O)O [(101), Dimethyl malonic acid, reference compound]",,,,−,,efficacy in the C. elegans assay (Caenorhabditis elegans; both tests): neither dimethyl malonic acid (101) nor dimethyl malonic acid dimethyl ester (102) proved to be effective
"COC(=O)C(C)C(=O)OC [(102), Methyl malonic acid dimethyl ester, reference compound]",,,,−,,efficacy in the C. elegans assay (Caenorhabditis elegans; both tests): neither dimethyl malonic acid (101) nor dimethyl malonic acid dimethyl ester (102) proved to be effective
"NCCCNC(=O)C12CC3CC(CC(C3)C1)C2 [(103), 1-Adamantane carboxylic acid-N-(3-aminopropyl)amide, reference compound]",,,,−,,
"CC(C)(C)OC(=O)NCCCN [(104), 3-Aminopropyl carbamic acid tert-butyl ester, reference compound]",,,,−,,
"CNCCCNC(=O)OC(C)(C)C [(105), 3-(Methylamino)propyl carbamic acid tert-butyl ester, reference compound]",,,,−,,
"OC12CC3CC(CC(C3)C1)C2 [(106), 1-Adamantanol, reference compound]",,,,−,,
"NC12CC3CC(CC(C3)C1)C2 [(107), 1-Adamantanamine, reference compound]",,,,−,,
"NCCCNC(=O)CC(=O)N1CCCc2ccccc21 [(108), N-(3-aminopropyl)-N′-tetrahydroquinoline malonic acid diamide]",,,,−,,efficacy in the C. elegans assay (Caenorhabditis elegans; both tests): ineffectiveness
